From patent US20220396565A1 (Hoffmann-La Roche Inc., priority 2020, published 2022)
Where a name gives a salt, the structure may show the parent alone.

test system: Acinetobacter baumannii ATCC17961; assay: Antimicrobial susceptibility testing: 90% growth inhibitory concentration (IC90) determination, Iso-Sensitest broth; type: cell-based; conditions: 90% growth inhibitory concentration, Acinetobacter baumannii ATCC17961, Iso-Sensitest broth; formate; read-out: ATCC 17961 IC90
Summary of the method: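 Growth at OD600 was monitored every 20 min for 16 h at 35±2 °C, with bacteria inoculated at ~5×10^(5) CFU/ml into Iso-Sensitest medium. Compounds were tested as 10-point twofold dilutions (e.g. 10–0.02 μM final). The 90% inhibitory concentration comes from the log-phase growth.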

| Structure (SMILES) | IC90 [nM] |
| --- | --- |
| COc1ccc(-c2cnc(C(=O)Nc3ccc(C(=O)N4CCN(C(=O)N[C@H]5CNC[C@@H]5O)CC4)c(Cl)c3)n2C)c(F)c1F [Example 284, 4-[2-chloro-4-[[5-(2,3-difluoro-4-methoxy-phenyl)-1-methyl-imidazole-2-carbonyl]amino]benzoyl]-N-[(3S,4S)-4-hydroxypyrrolidin-3-yl]piperazine-1-carboxamide formate] | 80 |

same assay, conditions: Acinetobacter baumannii, ATCC17961, 90% growth inhibitory concentration, Acinetobacter baumannii ATCC17961, Iso-Sensitest broth; read-out: ATCC 17961 IC90

| Structure (SMILES) | IC90 [nM] |
| --- | --- |
| COc1ccc(-c2cnc(C(=O)Nc3ccc(C(=O)N4CCC(C(=O)NCC5CNC5)CC4)c(Cl)c3)n2C)c(F)c1F [Example 31, N-(azetidin-3-ylmethyl)-1-[2-chloro-4-[[5-(2,3-difluoro-4-methoxy-phenyl)-1-methyl-imidazole-2-carbonyl]amino]benzoyl] piperidine-4-carboxamide formate] | 70 |
| CCOc1ccc(-c2cnc(C(=O)Nc3ccc(C(=O)N4CCN(C(=O)C5(O)CCNCC5)CC4)c(Cl)c3)n2C)c(F)c1F [Example 170, N-[3-chloro-4-[4-(4-hydroxypiperidine-4-carbonyl)piperazine-1-carbonyl]phenyl]-5-(4-ethoxy-2,3-difluoro-phenyl)-1-methyl-imidazole-2-carboxamide formate] | 60 |
| COc1ccc(-c2cnc(C(=O)Nc3ccc(C(=O)N4CCC(C(=O)N[C@@H]5CCNC5)CC4)c(Cl)c3)n2C)c(F)c1F [Example 64, 1-[2-chloro-4-[[5-(2,3-difluoro-4-methoxy-phenyl)-1-methyl-imidazole-2-carbonyl]amino]benzoyl]-N-[(3R)-pyrrolidin-3-yl]piperidine-4-carboxamide formate] | 60 |
| COc1ccc(-c2cnc(C(=O)Nc3ccc(C(=O)N4CCN(C(=O)C5CC(O)C5)CC4)c(Cl)c3)n2C)c(F)c1F (stereo not drawn) [Example 219, N-(3-chloro-4-(4-(3-hydroxycyclobutane-1-carbonyl)piperazine-1-carbonyl)phenyl)-5-(2,3-difluoro-4-methoxyphenyl)-1-methyl-1H-imidazole-2-carboxamide] | 110 |
| CCc1cc(NC(=O)c2ncc(-c3ccc(OC)c(F)c3F)n2C)ccc1C(=O)N1CCC(C(=O)NCCOCCN(C)C)CC1 [Example 99, 1-[4-[[5-(2,3-difluoro-4-methoxy-phenyl)-1-methyl-imidazole-2-carbonyl]amino]-2-ethyl-benzoyl]-N-[2-[2-(dimethylamino)ethoxy]ethyl] piperidine-4-carboxamid] | 480 |
| Cn1c(-c2ccc(OC(F)F)c(F)c2)cnc1C(=O)Nc1ccc(C(=O)N2CCN(C(=O)C[C@@H]3CCCN3)CC2)c(Cl)c1 [Example 181, N-[3-chloro-4-[4-[2-[(2S)-pyrrolidin-2-yl]acetyl]piperazine-1-carbonyl]phenyl]-5-[4-(difluoromethoxy)-3-fluoro-phenyl]-1-methyl-imidazole-2-carboxamide formate] | 130 |
| COc1ccc(-c2cnc(C(=O)Nc3ccc(C(=O)N4CCN(C(=O)C5CCC(=O)N5)CC4)c(Cl)c3)n2C)c(F)c1F (stereo not drawn) [Example 126, N-[3-chloro-4-[4-(5-oxopyrrolidine-2-carbonyl)piperazine-1-carbonyl]phenyl]-5-(2,3-difluoro-4-methoxy-phenyl)-1-methyl-imidazole-2-carboxamide] | 110 |
| Cn1c(-c2ccc(OCF)c(F)c2F)cnc1C(=O)Nc1ccc(C(=O)N2CCN(C(=O)C3[C@H]4CNC[C@@H]34)CC2)c(Cl)c1 (stereo partly drawn) [Example 136, N-[4-[4-[(1R,5S)-3-azabicyclo[3.1.0]hexane-6-carbonyl]piperazine-1-carbonyl]-3-chloro-phenyl]-5-[2,3-difluoro-4-(fluoromethoxy)phenyl]-1-methyl-imidazole-2-carboxamide formate] | 30 |
| Cn1c(-c2ccc(OCF)c(F)c2F)cnc1C(=O)Nc1ccc(C(=O)N2CCN(C(=O)C[C@@H]3CCNC3)CC2)c(Cl)c1 [Example 158, N-[3-chloro-4-[4-[2-[(3S)-pyrrolidin-3-yl]acetyl]piperazine-1-carbonyl]phenyl]-5-[2,3-difluoro-4-(fluoromethoxy)phenyl]-1-methyl-imidazole-2-carboxamide formate] | 40 |
| Cn1c(-c2ccc(OCC#N)c(F)c2F)cnc1C(=O)Nc1ccc(C(=O)N2CCN(C(=O)[C@@H]3C[C@H](N)CN3)CC2)c(Cl)c1 [Example 209, N-(4-(4-((2S,4S)-4-aminopyrrolidine-2-carbonyl)piperazine-1-carbonyl)-3-chlorophenyl)-5-(4-(cyanomethoxy)-2,3-difluorophenyl)-1-methyl 1H-imidazole-2-carboxamide] | 80 |
| COc1ccc(-c2cnc(C(=O)Nc3ccc(C(=O)N4CC(C(=O)N5CC(CN)C5)C4)c(Cl)c3)n2C)c(F)c1F [Example 66, N-[4-[3-[3-(aminomethyl)azetidine-1-carbonyl]azetidine-1-carbonyl]-3-chloro-phenyl]-5-(2,3-difluoro-4-methoxy-phenyl)-1-methyl-imidazole-2-carboxamide formate] | 140 |
| C#CCNCCCNC(=O)C1CCN(C(=O)c2ccc(NC(=O)c3ncc(-c4ccc(OC)c(F)c4F)n3C)cc2CC)CC1 [Example 286, 1-[4-[[5-(2,3-difluoro-4-methoxy-phenyl)-1-methyl-imidazole-2-carbonyl]amino]-2-ethyl-benzoyl]-N-[3-(prop-2-ynylamino)propyl]piper-idine-4-carboxamide] | 180 |
| CN(C)CCN1CCN(C(=O)c2ccc(NC(=O)c3ncc(-c4ccc(Oc5ncccn5)c(F)c4F)n3C)cc2Cl)CC1 [Example 273, N-[3-chloro-4-[4-[2-(dimethylamino)ethyl]piperazine-1-carbonyl]phenyl]-5-(2,3-difluoro-4-pyrimidin-2-yloxy-phenyl)-1-methyl-imidazole-2-carboxamide trifluoroacetate] | 1300 |
| COCCOc1ccc(-c2cnc(C(=O)Nc3ccc(C(=O)N4CCN(C(=O)C5CCNCC5)CC4)c(Cl)c3)n2C)c(F)c1F [Example 255, N-[3-chloro-4-[4-(piperidine-4-carbonyl)piperazine-1-carbonyl]phenyl]-5-[2,3-difluoro-4-(2-methoxyethoxy)phenyl]-1-methyl-imidazole-2-carboxamide formate] | 590 |
| COc1ccc(-c2cnc(C(=O)Nc3ccc(C(=O)N4CCC(NS(C)(=O)=O)CC4)c(Cl)c3)n2C)c(F)c1F [Example 238, N-[3-chloro-4-[4-(methanesulfonamido)piperidine-1-carbonyl]phenyl]-5-(2,3-difluoro-4-methoxy-phenyl)-1-methyl-imidazole-2-carboxamide] | 130 |
| Cn1c(-c2ccc(OC(F)F)c(F)c2F)cnc1C(=O)Nc1ccc(C(=O)N2CCN(C(=O)C3CCN(C(=O)C4(O)CCNCC4)CC3)CC2)c(Cl)c1 [Example 179, N-[3-chloro-4-[4-[1-(4-hydroxypiperidine-4-carbonyl)piperidine-4-carbonyl]piperazine-1-carbonyl]phenyl]-5-[4-(difluoromethoxy)-2,3-difluoro-phenyl]-1-methyl-imidazole-2-carboxamide formate] | 50 |
| COc1ccc(-c2cnc(C(=O)Nc3ccc(C(=O)N4C[C@@H]5CN(C(=O)C6CCNCC6)C[C@@H]5C4)c(Cl)c3)n2C)c(F)c1F [Example 186, N-[4-[(3aR,6aS)-5-(piperidine-4-carbonyl)-1,3,3a,4,6,6a-hexahydropyrrolo[3,4-c]pyrrole-2-carbonyl]-3-chloro-phenyl]-5-(2,3-difluoro-4-methoxy-phenyl)-1-methyl-idazole-2-carboxamide formate] | 100 |
| COc1ccc(-c2cnc(C(=O)Nc3ccc(C(=O)N4CCC(C(=O)N5C[C@H]6CCN[C@H]6C5)C4)c(Cl)c3)n2C)c(F)c1F (stereo partly drawn) [Example 71, N-[4-[3-[(3aR,6aR)-2,3,3a,4,6,6a-hexahydro-1H-pyrrolo[3,4-b]pyrrole-5-carbonyl]pyrrolidine-1-carbonyl]-3-chloro-phenyl]-5-(2,3-difluoro-4-methoxy-phenyl)-1-methyl-imidazole-2-carboxamide formate] | 470 |
| COc1ccc(-c2cnc(C(=O)Nc3ccc(C(=O)N4CCC(OCCN)CC4)c(Cl)c3)n2C)c(F)c1F [Example 22, N-[4-[4-(2-aminoethoxy)piperidine-1-carbonyl]-3-chloro-phenyl]-5-(2,3-difluoro-4-methoxy-phenyl)-1-methyl-imidazole-2-carboxamide formate] | 40 |

same assay, conditions: Acinetobacter baumannii, ATCC17961, read-out: ATCC 17961 IC90

| Structure (SMILES) | IC90 [nM] |
| --- | --- |
| Cn1c(-c2ccc(OCF)cc2F)cnc1C(=O)Nc1ccc(C(=O)N2CCN(C(=O)C3CCNCC3)CC2)c(Cl)c1 [Example 25, N-(3-chloro-4-(4-(piperidine-4-carbonyl)piperazine-l-carbonyl)phenyl)-5-(2-fluoro-4-(fluoromethoxy)phenyl)-1-methyl-1H-imidazole-2-carboxamide formate] | 60 |
| COc1ccc(-c2cnc(C(=O)Nc3ccc(C(=O)N4CCC(NS(=O)(=O)C5CCNCC5)CC4)c(Cl)c3)n2C)c(F)c1F [Example 235, N-[3-Chloro-4-[4-(4-piperidylsulfonylamino)piperidine-1-carbonyl]phenyl]-5-(2,3-difluoro-4-methoxy-phenyl)-1-methyl-imidazole-2-carboxamide formate] | 60 |
| COc1ccc(-c2cnc(C(=O)Nc3ccc(C(=O)N4CCN(C(=O)CCOCCNC(=O)CN(C)C)CC4)c(Cl)c3)n2C)c(F)c1F [Example 299, N-[3-Chloro-4-[4-[3-[2-[[2-(dimethylamino)acetyl]amino]ethoxy]propanoyl]piperazine-1-carbonyl]phenyl]-5-(2,3-difluoro-4-methoxy-phenyl)-1-methyl-imidazole-2-carboxamide] | 150 |
| Cn1c(-c2ccc(OCC#N)c(F)c2F)cnc1C(=O)Nc1ccc(C(=O)N2CCN(C(=O)[C@@H]3CCCCN3)CC2)c(Cl)c1 [Example 211, (S)-N-(3-chloro-4-(4-(piperidine-2-carbonyl)piperazine-1-carbonyl)phenyl)-5-(4-(cyanomethoxy)-2,3-difluorophenyl)-1-methyl 1H-imidazole-2-carboxamide formate] | 50 |
